What was measured:
Format in all cases: cell-based, human
HL-60(TB) = test: NCI five-dose assay; conditions: Leukemia; for GI50: read-out: GI50 Conc. per Cell Lines
RPMI-8226 = test: NCI five-dose assay; conditions: RPMI-8226, Leukemia; for CC50 / GI50: Homo sapiens; for CC50: 48 h, read-out: LC50 (the source's name); for GI50: read-out: GI50 Conc. per Cell Lines
HOP-92 = test: NCI five-dose assay; conditions: HOP-92, Non-small cell lung cancer; for CC50 / GI50: Homo sapiens; for CC50: 48 h, read-out: LC50 (the source's name); for GI50: read-out: GI50 Conc. per Cell Lines
HCC-2998 = test: NCI five-dose assay; conditions: HCC-2998, Colon cancer; for CC50 / GI50: Homo sapiens; for CC50: 48 h, read-out: LC50 (the source's name); for GI50: read-out: GI50 Conc. per Cell Lines
HCT-15 = test: NCI five-dose assay; conditions: HCT-15, Colon cancer; for CC50 / GI50: Homo sapiens; for CC50: 48 h, read-out: LC50 (the source's name); for GI50: read-out: GI50 Conc. per Cell Lines
HT29 = test: NCI five-dose assay; conditions: HT29, Colon cancer; for GI50: read-out: GI50 Conc. per Cell Lines
SF-295 = test: NCI five-dose assay; conditions: SF-295, CNS cancer; for CC50 / GI50: Homo sapiens; for CC50: 48 h, read-out: LC50 (the source's name); for GI50: read-out: GI50 Conc. per Cell Lines
SNB-19 = test: NCI five-dose assay; conditions: SNB-19, CNS cancer; for CC50 / GI50: Homo sapiens; for CC50: 48 h, read-out: LC50 (the source's name); for GI50: read-out: GI50 Conc. per Cell Lines
SK-MEL-28 = test: NCI five-dose assay; conditions: SK-MEL-28, Melanoma; for CC50 / GI50: Homo sapiens; for CC50: 48 h, read-out: LC50 (the source's name); for GI50: read-out: GI50 Conc. per Cell Lines
UO-31 = test: NCI five-dose assay; conditions: UO-31, Renal cancer; for CC50 / GI50: Homo sapiens; for CC50: 48 h, read-out: LC50 (the source's name); for GI50: read-out: GI50 Conc. per Cell Lines
MDA-MB-468 = test: NCI five-dose assay; conditions: MDA-MB-468, Breast cancer; for LC50 / GI50: Homo sapiens; for LC50: 48 h; for GI50: read-out: GI50 Conc. per Cell Lines
[1] = test system: Non-small cell lung cancer subpanel; test: NCI five-dose assay, subpanel mean; conditions: for GI50: Homo sapiens, average sensitivity of all cell lines of the Non-small cell lung cancer subpanel, read-out: GI50 Subpanel MID b; for GI50 Selectivity Ratio (MID a/MID b): Non-small cell lung cancer subpanel

Structure (SMILES): Cc1ccc(C(=O)CSc2nnc(-c3c[nH]c4ccccc34)n2-c2ccccc2)cc1 [Compound 6h, 2-((5-(1H-Indol-3-yl)-4-phenyl-4H-1,2,4-triazol-3-yl)thio)-1-(p-tolyl)ethenone]
- CC50 (HL-60(TB); Homo sapiens, 48 h, read-out: LC50 (the source's name)): > 100 µM
- GI50 (HL-60(TB); Homo sapiens): 30.8 µM
- TGI Conc. per Cell Lines (HL-60(TB)): ˃100 µM
- CC50 (RPMI-8226): > 100 µM
- GI50 (RPMI-8226): 29.8 µM
- TGI Conc. per Cell Lines (RPMI-8226): ˃100 µM
- TGI Conc. per Cell Lines (HOP-92): 34.70 µM
- CC50 (HOP-92): 82.1 µM
- GI50 (HOP-92): 14.7 µM
- TGI Conc. per Cell Lines (HCC-2998): 51.70 µM
- CC50 (HCC-2998): > 100 µM
- GI50 (HCC-2998): 20 µM
- TGI Conc. per Cell Lines (HCT-15): >100 µM
- CC50 (HCT-15): > 100 µM
- GI50 (HCT-15): 22.6 µM
- TGI Conc. per Cell Lines (HT29): 50.50 µM
- CC50 (HT29; Homo sapiens, HT-29, 48 h, read-out: LC50 (the source's name)): > 100 µM
- GI50 (HT29; Homo sapiens, HT-29): 15.6 µM
- CC50 (SF-295): 53.3 µM
- GI50 (SF-295): 12.6 µM
- TGI Conc. per Cell Lines (SF-295): 25.90 µM
- CC50 (SNB-19): 75.3 µM
- GI50 (SNB-19): 15.8 µM
- TGI Conc. per Cell Lines (SNB-19): 34.50 µM
- CC50 (SK-MEL-28): > 100 µM
- GI50 (SK-MEL-28): 19.6 µM
- TGI Conc. per Cell Lines (SK-MEL-28): 52.10 µM
- CC50 (UO-31): 69.5 µM
- GI50 (UO-31): 14.2 µM
- TGI Conc. per Cell Lines (UO-31): 31.40 µM
- LC50 (MDA-MB-468): 81.3 µM
- GI50 (MDA-MB-468): 12.8 µM
- GI50 [1]: 14.9 µM
- GI50 Selectivity Ratio (MID a/MID b) [1]: 1.29

Structure (SMILES): Cc1ccc(/C(CSc2nnc(-c3c[nH]c4ccccc34)n2-c2ccccc2)=N/O)cc1 [Compound 7h, (Z)-2-((5-(1H-Indol-3-yl)-4-phenyl-4H-1,2,4-triazol-3-yl)thio)-1-(p-tolyl)ethanone Oxime]
- GI50 (HL-60(TB); Homo sapiens): 1.92 µM
- TGI Conc. per Cell Lines (HL-60(TB)): 3.96 µM
- CC50 (RPMI-8226): > 100 µM
- GI50 (RPMI-8226): 2.05 µM
- TGI Conc. per Cell Lines (RPMI-8226): 4.81 µM
- TGI Conc. per Cell Lines (HOP-92): 37.40 µM
- CC50 (HOP-92): > 100 µM
- GI50 (HOP-92): 11.9 µM
- TGI Conc. per Cell Lines (HCC-2998): 3.93 µM
- CC50 (HCC-2998): 7.39 µM
- GI50 (HCC-2998): 2.09 µM
- TGI Conc. per Cell Lines (HCT-15): 3.34 µM
- CC50 (HCT-15): 6.37 µM
- GI50 (HCT-15): 1.75 µM
- TGI Conc. per Cell Lines (HT29): 4.43 µM
- GI50 (HT29; Homo sapiens, HT-29): 1.99 µM
- CC50 (SF-295): 6.15 µM
- GI50 (SF-295): 1.64 µM
- TGI Conc. per Cell Lines (SF-295): 3.18 µM
- CC50 (SNB-19): 8.46 µM
- GI50 (SNB-19): 1.87 µM
- TGI Conc. per Cell Lines (SNB-19): 3.97 µM
- CC50 (SK-MEL-28): > 100 µM
- GI50 (SK-MEL-28): 5.67 µM
- TGI Conc. per Cell Lines (SK-MEL-28): 38.7 µM
- CC50 (UO-31): 9.47 µM
- GI50 (UO-31): 1.82 µM
- TGI Conc. per Cell Lines (UO-31): 4.15 µM
- LC50 (MDA-MB-468): 5.64 µM
- GI50 (MDA-MB-468): 1.5 µM
- TGI Conc. per Cell Lines (MDA-MB-468): 2.91 µM
- GI50 [1]: 4.44 µM
- GI50 Selectivity Ratio (MID a/MID b) [1]: 0.68
